molecular target: T1, human CCR6 (Homo sapiens, UniProt P51684); experiment: Migration assay (chemotaxis, ChemoTX); assay type: cell-based; conditions: hCCR6-transfected Ba/F3 cells in human serum, migration to recombinant human CCL20 10 nM, 37° C. 45 minutes; read-out: Potency (IC50 value in the migration assay)
T1 construct: expressed in transfected cells; host or cells: Ba/F3 cells (mouse pro-B line)
T1 sequence (P51684 1-374): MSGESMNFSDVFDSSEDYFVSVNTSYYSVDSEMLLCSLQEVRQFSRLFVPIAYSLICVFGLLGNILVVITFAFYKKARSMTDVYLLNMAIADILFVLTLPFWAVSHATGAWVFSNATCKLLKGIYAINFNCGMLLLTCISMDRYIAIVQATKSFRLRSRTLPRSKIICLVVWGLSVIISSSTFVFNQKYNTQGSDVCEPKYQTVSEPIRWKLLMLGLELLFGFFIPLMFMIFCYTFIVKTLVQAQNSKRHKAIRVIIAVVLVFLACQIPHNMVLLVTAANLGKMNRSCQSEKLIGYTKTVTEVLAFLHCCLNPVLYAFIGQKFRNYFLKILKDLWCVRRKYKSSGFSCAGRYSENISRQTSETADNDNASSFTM
Text: A chemotaxis assay can be used to determine the efficacy of potential receptor antagonists at blocking the migration mediated through chemokine receptors, such as CCR6. This assay is routinely performed using the ChemoTX® microchamber system with a 5-μm pore-sized polycarbonate membrane. Chemokine receptor-expressing cells are required for such an assay. In this case, Ba/F3 cells (Palacios et al., Nature, 309:126, 1984) transfected with the gene for human CCR6 under control of the CMV promotor were used. To begin such an assay, hCCR6-transfected Ba/F3 cells are first grown for 24 hr in medium supplemented with sodium butyrate, which increases CCR6 transcription via the CMV promotor. The prepared Ba/F3 cells, are collected by centrifugation at 400×g at room temperature, then suspended at 4 million/ml in human serum. The compound being tested is serially diluted from a maximum final concentration of 1 μM (or an equivalent volume of its solvent (DMSO)) and is then added to the cell/serum mixture. Separately, recombinant human CCL20 (MIP-3α/LARC) at its EC50 concentration (10 nM) is placed in the lower wells of the ChemoTX® plate. The 5-μm (pore size) polycarbonate membrane is placed onto the plate, and 20 μL of the cell/compound mixture is transferred onto each well of the membrane. The plates are incubated at 37° C. for 45 minutes, after which the polycarbonate membranes are removed and 5 μl of the DNA-intercalating dye CyQUANT (Invitrogen, Carlsbad, CA) is added to the lower wells. The amount of fluorescence, corresponding to the number of migrated cells, is measured using a Spectrafluor Plus plate reader (TECAN, San Jose, CA).

Row | Compound | IC50
1 | O=S(=O)(c1ccc(-c2ccnc(N3CC[C@@H](O)C3)c2)cc1)N1CC[C@@H](Nc2ccc(C(F)(F)F)cn2)[C@@H](O)C1 [Compound 134] | < 1 nM
2 | O=S(=O)(c1ccc(-c2ccnc(N3CC4(COC4)C3)c2)cc1)N1CC[C@@H](Nc2ccc(C(F)(F)F)cn2)[C@@H](O)C1 [Compound 135] | < 1 nM
3 | COC1CN(c2cc(-c3ccc(S(=O)(=O)N4CC[C@@H](Nc5ccc(C(F)(F)F)cn5)[C@@H](O)C4)cc3)ccn2)C1 [Compound 136] | 1 to 10 nM
4 | O=S(=O)(c1ccc(-c2ccnc(N3CC(O)C3)c2)cc1)N1CC[C@@H](Nc2ccc(C(F)(F)F)cn2)[C@@H](O)C1 [Compound 137] | < 1 nM
5 | CN(C)CCN(C)c1cc(-c2ccc(S(=O)(=O)N3CC[C@@H](Nc4ccc(C(F)(F)F)cn4)[C@@H](O)C3)cc2)ccn1 [Compound 138] | < 1 nM
6 | O=S(=O)(c1ccc(-c2ccnc(N3CCC3)c2)cc1)N1CC[C@@H](Nc2ccc(C(F)(F)F)cn2)[C@@H](O)C1 [Compound 139] | < 1 nM
7 | O=S(=O)(c1ccc(-c2ccnc(NC3CCC3)c2)cc1)N1CC[C@@H](Nc2ccc(C(F)(F)F)cn2)[C@@H](O)C1 [Compound 140] | < 1 nM
8 | O=S(=O)(c1ccc(-c2ccnc(N3CC4(CNC4)C3)c2)cc1)N1CC[C@@H](Nc2ccc(C(F)(F)F)cn2)[C@@H](O)C1 [Compound 141] | 1 to 10 nM
9 | CN1CC2(C1)CN(c1cc(-c3ccc(S(=O)(=O)N4CC[C@@H](Nc5ccc(C(F)(F)F)cn5)[C@@H](O)C4)cc3)ccn1)C2 [Compound 142] | 1 to 10 nM
10 | CN(C)C1CCN(c2cc(-c3ccc(S(=O)(=O)N4CC[C@@H](Nc5ccc(C(F)(F)F)cn5)[C@@H](O)C4)cc3)ccn2)CC1 [Compound 143] | 1 to 10 nM
11 | O=S(=O)(c1ccc(-c2ccnc(N3CCCCC3)c2)cc1)N1CC[C@@H](Nc2ccc(C(F)(F)F)cn2)[C@@H](O)C1 [Compound 145] | < 1 nM
12 | O=S(=O)(c1ccc(-c2ccnc(N3CCOCC3)c2)cc1)N1CC[C@@H](Nc2ccc(C(F)(F)F)cn2)[C@@H](O)C1 [Compound 146] | < 1 nM
13 | Cc1cc(C(N)=O)ncc1-c1ccc(S(=O)(=O)N2CC[C@@H](Nc3ccc(C(F)(F)F)cn3)[C@@H](O)C2)cc1 [Compound 147] | < 1 nM
14 | Cc1c(-c2ccc(S(=O)(=O)N3CC[C@@H](Nc4ccc(C(F)(F)F)cn4)[C@@H](O)C3)cc2)cnc(N)c1C [Compound 148] | < 1 nM
15 | N#Cc1cnccc1-c1ccc(S(=O)(=O)N2CC[C@@H](Nc3ccc(C(F)(F)F)cn3)[C@@H](O)C2)cc1 [Compound 149] | 1 to 10 nM
16 | COc1nccc(-c2ccc(S(=O)(=O)N3CC[C@@H](Nc4ccc(C(F)(F)F)cn4)[C@@H](O)C3)cc2)c1OC [Compound 150] | < 1 nM
17 | COc1cnccc1-c1ccc(S(=O)(=O)N2CC[C@@H](Nc3ccc(C(F)(F)F)cn3)[C@@H](O)C2)cc1 [Compound 151] | 1 to 10 nM

Row | Compound | IC50
18 | Cc1cncc(-c2ccc(S(=O)(=O)N3CC[C@@H](Nc4ccc(C(F)(F)F)cn4)[C@@H](O)C3)cc2)c1 [Compound 152] | < 1 nM
19 | O=S(=O)(c1ccc(-c2ccncc2CO)cc1)N1CC[C@@H](Nc2ccc(C(F)(F)F)cn2)[C@@H](O)C1 [Compound 153] | 1 to 10 nM
20 | COc1ccc(-c2ccc(S(=O)(=O)N3CC[C@@H](Nc4ccc(C(F)(F)F)cn4)[C@@H](O)C3)cc2)cn1 [Compound 154] | 1 to 10 nM
21 | COc1nccc(-c2ccc(S(=O)(=O)N3CC[C@@H](Nc4ccc(C(F)(F)F)cn4)[C@@H](O)C3)cc2)c1C [Compound 155] | < 1 nM
22 | COc1cnc(C)cc1-c1ccc(S(=O)(=O)N2CC[C@@H](Nc3ccc(C(F)(F)F)cn3)[C@@H](O)C2)cc1 [Compound 156] | < 1 nM
23 | COc1c(-c2ccc(S(=O)(=O)N3CC[C@@H](Nc4ccc(C(F)(F)F)cn4)[C@@H](O)C3)cc2)ccnc1C [Compound 157] | < 1 nM
24 | O=S(=O)(c1ccc(-c2ccnc(N3CCNCC3)c2)cc1)N1CC[C@@H](Nc2ccc(C(F)(F)F)cn2)[C@@H](O)C1 [Compound 158] | 1 to 10 nM
25 | O=C1Nc2ncc(-c3ccc(S(=O)(=O)N4CC[C@@H](Nc5ccc(C(F)(F)F)cn5)[C@@H](O)C4)cc3)cc2C12CCC2 [Compound 159] | < 1 nM
26 | Nc1ccc(-c2ccc(S(=O)(=O)N3CC[C@@H](Nc4ccc(C(F)(F)F)cn4)[C@@H](O)C3)cc2)cn1 [Compound 160] | < 1 nM
27 | O=S(=O)(c1ccc(-c2ccncc2)cc1)N1CC[C@@H](Nc2ccc(C(F)(F)F)cn2)[C@@H](O)C1 [Compound 161] | < 1 nM
28 | O=S(=O)(c1ccc(-c2cccnc2)cc1)N1CC[C@@H](Nc2ccc(C(F)(F)F)cn2)[C@@H](O)C1 [Compound 162] | < 1 nM
29 | Cc1cc(-c2ccc(S(=O)(=O)N3CC[C@@H](Nc4ccc(C(F)(F)F)cn4)[C@@H](O)C3)cc2)ccn1 [Compound 163] | < 1 nM
30 | Cc1cnccc1-c1ccc(S(=O)(=O)N2CC[C@@H](Nc3ccc(C(F)(F)F)cn3)[C@@H](O)C2)cc1 [Compound 164] | < 1 nM
31 | COc1cc(-c2ccc(S(=O)(=O)N3CC[C@@H](Nc4ccc(C(F)(F)F)cn4)[C@@H](O)C3)cc2)ccn1 [Compound 165] | 1 to 10 nM
32 | Cc1c(-c2ccc(S(=O)(=O)N3CC[C@@H](Nc4ccc(C(F)(F)F)cn4)[C@@H](O)C3)cc2)ccnc1N [Compound 166] | < 1 nM
33 | O=C1C[C@H](Nc2ccc(-c3ccc(S(=O)(=O)N4CC[C@@H](Nc5ccc(C(F)(F)F)cn5)[C@@H](O)C4)cc3)cn2)CN1 [Compound 167] | < 1 nM

The next lines start with the values.

Row | IC50 | Compound
34 | < 1 nM | O=C1C[C@@H](Nc2ccc(-c3ccc(S(=O)(=O)N4CC[C@@H](Nc5ccc(C(F)(F)F)cn5)[C@@H](O)C4)cc3)cn2)CN1 [Compound 168]
35 | < 1 nM | O=C1NCC[C@H]1Nc1ccc(-c2ccc(S(=O)(=O)N3CC[C@@H](Nc4ccc(C(F)(F)F)cn4)[C@@H](O)C3)cc2)cn1 [Compound 169]
36 | < 1 nM | O=C1NCC[C@@H]1Nc1ccc(-c2ccc(S(=O)(=O)N3CC[C@@H](Nc4ccc(C(F)(F)F)cn4)[C@@H](O)C3)cc2)cn1 [Compound 170]
37 | < 1 nM | O=S(=O)(c1ccc(-c2ccc(N3CCC(O)CC3)nc2)cc1)N1CC[C@@H](Nc2ccc(C(F)(F)F)cn2)[C@@H](O)C1 [Compound 171]
38 | < 1 nM | O=S(=O)(c1ccc(-c2ccc(N3CCCC3)nc2)cc1)N1CC[C@@H](Nc2ccc(C(F)(F)F)cn2)[C@@H](O)C1 [Compound 172]
39 | < 1 nM | O=C1CN(c2cc(-c3ccc(S(=O)(=O)N4CC[C@@H](Nc5ccc(C(F)(F)F)cn5)[C@@H](O)C4)cc3)ccn2)CCN1 [Compound 173]
40 | < 1 nM | O=S(=O)(c1ccc(-c2ccc(N3CC(O)C3)nc2)cc1)N1CC[C@@H](Nc2ccc(C(F)(F)F)cn2)[C@@H](O)C1 [Compound 174]
41 | < 1 nM | O=S(=O)(c1ccc(-c2ccc(N3CC[C@H](O)C3)nc2)cc1)N1CC[C@@H](Nc2ccc(C(F)(F)F)cn2)[C@@H](O)C1 [Compound 175]
42 | < 1 nM | O=S(=O)(c1ccc(-c2ccc(N3CC[C@@H](O)C3)nc2)cc1)N1CC[C@@H](Nc2ccc(C(F)(F)F)cn2)[C@@H](O)C1 [Compound 176]
43 | 1 to 10 nM | CN(C)C1CN(c2cc(-c3ccc(S(=O)(=O)N4CC[C@@H](Nc5ccc(C(F)(F)F)cn5)[C@@H](O)C4)cc3)ccn2)C1 [Compound 177]
44 | < 1 nM | O=C1CN(c2ccc(-c3ccc(S(=O)(=O)N4CC[C@@H](Nc5ccc(C(F)(F)F)cn5)[C@@H](O)C4)cc3)cn2)CCN1 [Compound 178]
45 | < 1 nM | O=C1CNCCN1c1ccc(-c2ccc(S(=O)(=O)N3CC[C@@H](Nc4ccc(C(F)(F)F)cn4)[C@@H](O)C3)cc2)cn1 [Compound 179]
46 | < 1 nM | O=c1[nH]ncc2ccc(-c3ccc(S(=O)(=O)N4CC[C@@H](Nc5ccc(C(F)(F)F)cn5)[C@@H](O)C4)cc3)cc12 [Compound 180]
47 | < 1 nM | NS(=O)(=O)c1cc(-c2ccc(S(=O)(=O)N3CC[C@@H](Nc4ccc(C(F)(F)F)cn4)[C@@H](O)C3)cc2)ccn1 [Compound 181]
48 | < 1 nM | COc1c(-c2ccc(S(=O)(=O)N3CC[C@@H](Nc4ccc(C(F)(F)F)cn4)[C@@H](O)C3)cc2)ccnc1C(N)=O [Compound 182]
49 | < 1 nM | Cc1ncc(C(N)=O)cc1-c1ccc(S(=O)(=O)N2CC[C@@H](Nc3ccc(C(F)(F)F)cn3)[C@@H](O)C2)cc1 [Compound 183]
50 | < 1 nM | Cc1c(C(N)=O)cncc1-c1ccc(S(=O)(=O)N2CC[C@@H](Nc3ccc(C(F)(F)F)cn3)[C@@H](O)C2)cc1 [Compound 184]
